The record followed here is ChEMBL document CHEMBL3751687, “Design and synthesis of calindol derivatives as potent and selective calcium sensing receptor agonists” (Bioorg Med Chem, 2016).

The source made the active and inactive calls. The calls are words filed in the database; no cut-off is given here.

Data set [1] has as its target T1, Extracellular calcium-sensing receptor (Rattus norvegicus) (UniProt P48442).
T1 sequence (whole entry): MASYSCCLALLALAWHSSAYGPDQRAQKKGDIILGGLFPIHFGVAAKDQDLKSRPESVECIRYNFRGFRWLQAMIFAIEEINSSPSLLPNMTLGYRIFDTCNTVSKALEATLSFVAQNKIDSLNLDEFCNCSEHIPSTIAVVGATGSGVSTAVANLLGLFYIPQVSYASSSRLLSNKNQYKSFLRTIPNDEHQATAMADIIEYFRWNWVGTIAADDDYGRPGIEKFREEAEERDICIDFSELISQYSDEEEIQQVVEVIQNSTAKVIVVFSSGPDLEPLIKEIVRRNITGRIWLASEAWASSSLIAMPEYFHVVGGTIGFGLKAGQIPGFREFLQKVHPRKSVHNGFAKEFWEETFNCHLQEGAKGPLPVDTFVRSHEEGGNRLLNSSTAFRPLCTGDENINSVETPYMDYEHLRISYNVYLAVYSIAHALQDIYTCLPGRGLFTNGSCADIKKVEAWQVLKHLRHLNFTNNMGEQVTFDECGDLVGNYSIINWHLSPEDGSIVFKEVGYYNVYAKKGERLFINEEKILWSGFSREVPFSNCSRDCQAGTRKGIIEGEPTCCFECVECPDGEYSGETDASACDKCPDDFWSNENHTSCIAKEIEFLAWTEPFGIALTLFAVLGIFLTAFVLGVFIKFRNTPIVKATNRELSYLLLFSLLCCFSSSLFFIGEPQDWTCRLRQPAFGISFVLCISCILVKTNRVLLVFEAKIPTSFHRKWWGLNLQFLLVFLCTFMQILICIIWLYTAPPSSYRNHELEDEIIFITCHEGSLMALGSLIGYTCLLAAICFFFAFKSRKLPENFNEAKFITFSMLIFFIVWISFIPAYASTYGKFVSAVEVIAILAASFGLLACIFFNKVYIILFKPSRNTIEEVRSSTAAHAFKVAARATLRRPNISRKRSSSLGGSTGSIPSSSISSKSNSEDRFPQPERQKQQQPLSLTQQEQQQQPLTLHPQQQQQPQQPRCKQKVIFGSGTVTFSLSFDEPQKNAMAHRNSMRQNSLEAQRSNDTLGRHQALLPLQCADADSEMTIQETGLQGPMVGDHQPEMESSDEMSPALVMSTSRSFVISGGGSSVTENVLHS
The data set is described as follows: Agonist activity at rat brain CaSR expressed in CHO cells assessed as inositol phosphate production at 3 uM in presence of 3 mM extracellular Ca2+ by IP-one assay. The data set is classed as functional, cell-based.

In data set [2] the target is T1, Extracellular calcium-sensing receptor (Rattus norvegicus). The data set is described as follows: Agonist activity at rat brain CaSR expressed in CHO cells assessed as inositol phosphate production at 10 uM in presence of 3 mM extracellular Ca2+ by IP-one assay. The class given is functional, cell-based.
Data set [3] shares this target. The experiment in a line: Agonist activity at rat brain CaSR expressed in CHO cells assessed as inositol phosphate production at 3 uM in presence of 2 mM extracellular Ca2+ by IP-one assay. The data set is classed as functional, cell-based.
The target is the same in data set [4]. The experiment in a line: Agonist activity at rat brain CaSR expressed in CHO cells assessed as inositol phosphate production at 10 uM in presence of 2 mM extracellular Ca2+ by IP-one assay. The data set is classed as functional, cell-based.
The target of data set [5] is T2, Extracellular calcium-sensing receptor (Rattus norvegicus, UniProt P48442).
T2 sequence (P48442 whole entry): T1 sequence (whole entry)
The experiment in a line: Agonist activity at rat brain CaSR expressed in CHO cells assessed as inositol phosphate production in presence of 3 mM extracellular Ca2+ by IP-one assay. The data set is classed as functional, cell-based.

The target in data set [6] is T3, G-protein coupled receptor family C group 6 member A (Mus musculus) (UniProt Q8K4Z6).
T3 sequence (whole entry): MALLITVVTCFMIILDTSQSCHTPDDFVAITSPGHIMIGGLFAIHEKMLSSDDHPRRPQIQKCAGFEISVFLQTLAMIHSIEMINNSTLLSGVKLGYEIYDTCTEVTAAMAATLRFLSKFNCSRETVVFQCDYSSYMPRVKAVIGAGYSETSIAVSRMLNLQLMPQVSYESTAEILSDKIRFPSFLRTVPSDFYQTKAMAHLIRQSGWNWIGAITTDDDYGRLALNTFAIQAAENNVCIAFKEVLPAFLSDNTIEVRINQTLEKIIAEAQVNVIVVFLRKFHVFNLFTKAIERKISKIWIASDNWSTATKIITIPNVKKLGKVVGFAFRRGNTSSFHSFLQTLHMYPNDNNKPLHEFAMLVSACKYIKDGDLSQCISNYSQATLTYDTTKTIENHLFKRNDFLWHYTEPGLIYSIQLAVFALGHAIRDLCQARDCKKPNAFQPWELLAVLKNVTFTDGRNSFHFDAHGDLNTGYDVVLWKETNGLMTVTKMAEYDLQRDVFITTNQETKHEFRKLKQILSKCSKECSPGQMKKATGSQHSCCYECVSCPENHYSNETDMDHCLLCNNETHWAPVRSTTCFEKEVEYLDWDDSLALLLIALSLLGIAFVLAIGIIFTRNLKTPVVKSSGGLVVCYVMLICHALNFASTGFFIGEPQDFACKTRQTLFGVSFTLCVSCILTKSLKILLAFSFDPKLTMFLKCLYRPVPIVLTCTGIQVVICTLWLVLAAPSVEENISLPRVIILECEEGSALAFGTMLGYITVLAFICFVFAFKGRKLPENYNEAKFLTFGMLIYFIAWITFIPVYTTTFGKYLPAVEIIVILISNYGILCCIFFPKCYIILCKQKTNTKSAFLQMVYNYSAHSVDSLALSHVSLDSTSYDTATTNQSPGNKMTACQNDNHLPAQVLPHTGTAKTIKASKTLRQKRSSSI
The data set is described as follows: Inhibition of L-Ornithine-stimulated wild type mouse GPRC6A expressed in HEK293 cells coexpressing GalphaqG66D assessed as increase in [3H] inositol phosphate production at 10 uM incubated for 30 mins in presence of 2 mM extracellular Ca2+. The class given is functional, cell-based.

Data set [7] has as its system HEK293. The data set is described as follows: Effect on inositol phosphate production in HEK293 cells in absence of L-Ornithine. The data set is classed as ADME, cell-based. As to conditions: human.
In data set [8] the target is T1, Extracellular calcium-sensing receptor (Rattus norvegicus). The data set is described as follows: Agonist activity at rat brain CaSR expressed in CHO cells assessed as inositol phosphate production at 0.1 uM in presence of 3 mM extracellular Ca2+ by IP-one assay. The class given is functional, cell-based.

Usually EC50 stands for the concentration needed to bring the measured effect to its halfway point. Broadly, the inhibition is the drop in the measured response relative to a control, in per cent.

With `CC(NCc1cc2ccccc2[nH]1)c1cccc(Br)c1` (racemic), the Activity in data set [1] amounted to 49%. `C[C@@H](NCc1[nH]c2ccccc2c1-c1ccccc1)c1cccc2ccccc12`: the Activity in data set [2] amounted to 55%. `COc1cccc2[nH]c(CN[C@H](C)c3cccc4ccccc34)cc12`: the Activity in data set [3] stood at 63%; in data set [4] it was 95%.

As for `Cc1ccc([C@@H](C)NCc2cc3ccccc3[nH]2)cc1`, the Activity in data set [4] was found to be 29%.

Turning to `CC(NCc1cc2ccccc2[nH]1)c1ccc(-c2ccccc2)cc1` (racemic), the values for the Activity in data set [1] and in data set [2] were 2% and 1%, respectively. Take `CC(NCc1cc2ccccc2[nH]1)c1ccc(F)c2ccccc12` (racemic): the EC50 in data set [5] is 131 nM. Besides, the Activity in data set [1] is 89%; in data set [7], “Non-toxic”. Moreover, in data set [6], the inhibition result is “inactive”. Turning to `COc1ccc2cc(CN[C@H](C)c3cccc4ccccc34)[nH]c2c1`, the Activity was determined as 33% in data set [3] and 76% in data set [4]. Consider `C[C@@H](NCc1cc2cccc(-c3ccccc3)c2[nH]1)c1cccc2ccccc12`, for which, in data set [1], the Activity was found to be 79%. With `Cc1ccc2[nH]c(CN[C@H](C)c3cccc4ccccc34)cc2c1`, the Activity in data set [3] was determined as 1%; in data set [4], 69%. Take `C[C@@H](NCc1cc2ccccc2[nH]1)c1ccccc1`: the Activity in data set [4] amounted to 34%. In the case of `C[C@@H](NCc1cc2c(-c3ccccc3)cccc2[nH]1)c1cccc2ccccc12`, the EC50 in data set [5] came to 136 nM. Besides, the Activity is 85% in data set [1], 102% in data set [2] and “Non-toxic” in data set [7]. In data set [6], the inhibition result was “inactive”.

With `C[C@@H](NCc1cc2cc(O)ccc2[nH]1)c1cccc2ccccc12`, the EC50 in data set [5] came out at 112 nM. In addition, the Activity in data set [1] was 92%. On to `COc1cc(OC)c2cc(CN[C@H](C)c3cccc4ccccc34)[nH]c2c1`, for which the Activity came out at 53% in data set [3] and 94% in data set [4]. On to `C[C@@H](NCc1cc2cc(S(C)(=O)=O)ccc2[nH]1)c1cccc2ccccc12`, for which the Activity in data set [1] stood at 54%. `C[C@@H](NCc1cc2ccccc2[nH]1)c1cccc2ccccc12` [CALINDOL]: the EC50 in data set [5] is 132 nM. In addition, the Activity in data set [1] came to 83%; in data set [2] it was 100%; in data set [3], 73%; in data set [4], 103%. In addition, in data set [6], the inhibition turned out to be 35%. On to `COc1ccc([C@@H](C)NCc2cc3ccccc3[nH]2)cc1`, for which the Activity in data set [4] is 27%.

Take `C[C@@H](NCc1cc2cc([N+](=O)[O-])ccc2[nH]1)c1cccc2ccccc12`: the Activity in data set [1] stood at 30%. As for `C[C@@H](NCc1[nH]c2ccccc2c1Br)c1cccc2ccccc12`, the Activity in data set [1] was 21%.

In the case of `C[C@@H](NCc1cc2c(O)cccc2[nH]1)c1cccc2ccccc12`, in data set [5], the EC50 is 102 nM. Besides, the Activity in data set [1] came out at 88%.

For `C[C@@H](NCc1cc2cc(OCc3ccccc3)ccc2[nH]1)c1cccc2ccccc12`, the Activity in data set [1] is 23%.

As to `C[C@@H](NC1CCCc2c1[nH]c1ccccc21)c1cccc2ccccc12` (mixture of isomers), the Activity in data set [2] turned out to be 67%. In the case of `COc1cccc([C@@H](C)NCc2cc3ccccc3[nH]2)c1`, the Activity in data set [4] is 54%. As to `C[C@@H](NCc1cc2ccccc2[nH]1)c1ccc(Br)cc1`, in data set [1], the Activity amounted to 26%. Same read-out and setting: under `C[C@@H](NCc1cc2ccccc2[nH]1)c1ccc(F)cc1` stands 30%.

Regarding `CC(NCc1cc2ccccc2[nH]1)c1ccccc1O` (racemic), the Activity in data set [1] and in data set [2] was 1% each time.

Consider `COc1cc2cc(CN[C@H](C)c3cccc4ccccc34)[nH]c2c(OC)c1OC`, for which the Activity in data set [1] worked out at 40%. Turning to `C[C@@H](NCc1cc2cccc(O)c2[nH]1)c1cccc2ccccc12`, the Activity in data set [1] is 55%; in data set [2], 83%. `C[C@@H](NCc1cc2cccc([N+](=O)[O-])c2[nH]1)c1cccc2ccccc12`: the 50% effective concentration (EC50) in data set [5] turned out to be 20 nM. Besides, the figures for the Activity in data set [1], in data set [8] and in data set [7] were 102%, 70% and “Non-toxic”, respectively. Also, in data set [6], the inhibition entry is “inactive”. For the compound `C[C@@H](NCc1cc2cc(F)ccc2[nH]1)c1cccc2ccccc12`, the Activity came out at 30% in data set [3] and 74% in data set [4].
